How the values were obtained:
Cholinesterase = Cholinesterase (Equus caballus, UniProt P81908)
Acetylcholinesterase [1] = target: Acetylcholinesterase (Homo sapiens, UniProt P22303)
Acetylcholinesterase [2] = target: Acetylcholinesterase (Electrophorus electricus, UniProt O42275)
[3] = target: Amyloid-beta precursor protein (Homo sapiens) (UniProt P05067); assay: Inhibition of recombinant human HFIP-pretreated Amyloid beta (1 to 42) (unknown origin) self-induced aggregation at 10 uM after 24 hrs by thioflavin T-based fluorometric assay
[4] = target: Cholinesterase (Equus caballus) (UniProt P81908); assay: Inhibition of BuChE in horse serum at 10 uM pre-incubated for 5 mins before addition of butyrylthiocholine iodide substrate by Ellman's assay
[5] = PAMPA

Chain of Acetylcholinesterase (Homo sapiens, UniProt P22303) (P22303 whole entry): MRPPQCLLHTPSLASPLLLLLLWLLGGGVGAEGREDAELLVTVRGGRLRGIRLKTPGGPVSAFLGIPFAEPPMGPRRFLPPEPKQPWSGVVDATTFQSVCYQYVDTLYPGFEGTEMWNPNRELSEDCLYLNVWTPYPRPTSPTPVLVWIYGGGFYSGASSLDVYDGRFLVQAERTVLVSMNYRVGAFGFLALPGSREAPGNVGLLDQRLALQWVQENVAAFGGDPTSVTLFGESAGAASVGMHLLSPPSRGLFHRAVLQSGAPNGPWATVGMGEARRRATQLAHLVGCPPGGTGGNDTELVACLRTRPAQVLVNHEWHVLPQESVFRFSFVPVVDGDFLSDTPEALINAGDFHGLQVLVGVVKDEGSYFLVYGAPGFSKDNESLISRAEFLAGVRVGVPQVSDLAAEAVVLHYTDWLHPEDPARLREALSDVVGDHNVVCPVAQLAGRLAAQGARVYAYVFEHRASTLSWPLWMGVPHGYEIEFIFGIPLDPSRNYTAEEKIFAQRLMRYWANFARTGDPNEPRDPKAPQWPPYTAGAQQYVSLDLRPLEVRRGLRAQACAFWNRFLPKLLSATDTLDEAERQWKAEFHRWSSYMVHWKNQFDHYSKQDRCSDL
Chain of Amyloid-beta precursor protein (Homo sapiens) (P05067 whole entry): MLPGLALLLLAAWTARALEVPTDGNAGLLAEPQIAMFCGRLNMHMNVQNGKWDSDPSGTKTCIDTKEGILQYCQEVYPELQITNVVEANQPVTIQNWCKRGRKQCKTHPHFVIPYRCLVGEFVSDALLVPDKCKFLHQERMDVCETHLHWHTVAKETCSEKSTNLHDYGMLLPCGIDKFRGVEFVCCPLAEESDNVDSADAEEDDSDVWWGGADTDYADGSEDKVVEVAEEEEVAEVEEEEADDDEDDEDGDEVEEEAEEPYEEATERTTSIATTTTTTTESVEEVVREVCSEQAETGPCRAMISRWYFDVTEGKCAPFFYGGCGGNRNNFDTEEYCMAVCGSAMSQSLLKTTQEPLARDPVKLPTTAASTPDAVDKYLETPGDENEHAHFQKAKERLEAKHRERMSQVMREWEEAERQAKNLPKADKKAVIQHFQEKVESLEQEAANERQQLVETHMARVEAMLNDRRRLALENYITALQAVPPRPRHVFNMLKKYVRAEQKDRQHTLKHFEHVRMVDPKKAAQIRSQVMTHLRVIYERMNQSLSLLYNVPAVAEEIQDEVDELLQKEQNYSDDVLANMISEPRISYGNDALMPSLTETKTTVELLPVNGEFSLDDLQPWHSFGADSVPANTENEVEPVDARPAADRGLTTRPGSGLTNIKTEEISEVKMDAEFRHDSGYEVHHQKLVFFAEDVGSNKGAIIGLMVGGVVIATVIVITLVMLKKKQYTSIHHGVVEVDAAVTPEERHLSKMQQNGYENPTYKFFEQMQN
Chain of Cholinesterase (P81908 whole entry): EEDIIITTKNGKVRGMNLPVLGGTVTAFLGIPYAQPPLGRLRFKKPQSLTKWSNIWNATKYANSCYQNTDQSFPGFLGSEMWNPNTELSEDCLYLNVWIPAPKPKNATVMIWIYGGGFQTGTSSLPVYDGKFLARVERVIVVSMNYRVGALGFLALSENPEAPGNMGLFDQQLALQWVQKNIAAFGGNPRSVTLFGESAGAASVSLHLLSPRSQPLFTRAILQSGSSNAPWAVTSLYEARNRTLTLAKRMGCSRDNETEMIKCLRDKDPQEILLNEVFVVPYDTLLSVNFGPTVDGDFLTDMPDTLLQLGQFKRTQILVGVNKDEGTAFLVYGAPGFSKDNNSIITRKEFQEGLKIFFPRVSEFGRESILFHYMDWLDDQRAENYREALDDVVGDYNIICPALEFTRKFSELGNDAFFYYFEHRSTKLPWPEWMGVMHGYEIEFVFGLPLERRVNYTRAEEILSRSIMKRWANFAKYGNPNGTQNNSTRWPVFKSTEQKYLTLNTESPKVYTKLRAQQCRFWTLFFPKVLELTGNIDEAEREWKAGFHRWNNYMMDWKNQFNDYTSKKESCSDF
Chain of Cholinesterase (Equus caballus) (P81908 whole entry): as above
Chain of Acetylcholinesterase (Electrophorus electricus, UniProt O42275) (O42275 whole entry): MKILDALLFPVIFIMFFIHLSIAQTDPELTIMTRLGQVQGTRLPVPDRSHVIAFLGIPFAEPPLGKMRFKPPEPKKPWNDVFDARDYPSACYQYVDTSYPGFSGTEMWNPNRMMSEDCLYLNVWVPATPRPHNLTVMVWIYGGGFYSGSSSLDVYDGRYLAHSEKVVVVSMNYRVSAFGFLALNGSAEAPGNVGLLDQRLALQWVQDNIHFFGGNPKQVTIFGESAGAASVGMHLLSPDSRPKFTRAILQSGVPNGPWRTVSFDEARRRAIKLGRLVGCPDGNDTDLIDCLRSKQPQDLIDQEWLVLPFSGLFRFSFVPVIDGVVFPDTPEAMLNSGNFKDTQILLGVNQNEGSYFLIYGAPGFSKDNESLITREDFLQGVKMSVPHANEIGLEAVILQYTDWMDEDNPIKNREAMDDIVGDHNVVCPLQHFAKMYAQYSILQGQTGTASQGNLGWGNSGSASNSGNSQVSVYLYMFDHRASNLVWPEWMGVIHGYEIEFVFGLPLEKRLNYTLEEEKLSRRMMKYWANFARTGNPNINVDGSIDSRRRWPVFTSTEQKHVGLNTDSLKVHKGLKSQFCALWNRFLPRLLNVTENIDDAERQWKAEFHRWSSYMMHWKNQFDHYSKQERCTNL

Compound	IC50 (Cholinesterase) [nM]	IC50 (Acetylcholinesterase [1]) [nM]	IC50 (Acetylcholinesterase [2]) [nM]	inhibition [3] [%]	inhibition [4] [%]	log Pe [5]
CN(CCCCCCCN1C(=O)c2ccccc2C1=O)Cc1ccccc1F	7160	625	525	< 5		
CN(CCCCCCN1C(=O)c2ccccc2C1=O)Cc1ccccc1		1830	89	< 5	< 50	
CN(CCCCCCCCN1C(=O)c2ccccc2C1=O)Cc1ccccc1F	4680	644	661	< 5		
CN(CCCCCCCN1C(=O)c2ccccc2C1=O)Cc1ccccc1	1010	997	172	< 5		
CN(CCCCN1C(=O)c2ccccc2C1=O)Cc1ccccc1			2330	< 5	< 50	
O=C1c2ccccc2C(=O)N1Cc1ccc(CNCc2ccccc2F)cc1	2900		2580	< 5		
CC(=O)[C@H]1CC[C@H]2[C@@H]3CCC4=CC(=O)CC[C@]4(C)[C@H]3CC[C@]12C [PROGESTERONE]						-5.1
O=C1c2ccccc2C(=O)N1Cc1ccc(CNCc2cccc(Cl)c2)cc1	1320		6310	< 5		
CN(CCCCCN1C(=O)c2ccccc2C1=O)Cc1cccc(Cl)c1	5830	537	110	< 5		
CN(CCCCN1C(=O)c2ccccc2C1=O)Cc1ccccc1F			1520	< 5	< 50	
CN(CCCCCCN1C(=O)c2ccccc2C1=O)Cc1cccc(Cl)c1	2440	1190	95	< 5		
CN(CCCCN1C(=O)c2ccccc2C1=O)Cc1cccc(Cl)c1			1430	< 5	< 50	
CN(CCCCCCCN1C(=O)c2ccccc2C1=O)Cc1cccc(Cl)c1	1500	1300	500	< 5		
CN(CCCCCN1C(=O)c2ccccc2C1=O)Cc1ccccc1		361	80	< 5	< 50	
CN(CCCCCCCCN1C(=O)c2ccccc2C1=O)Cc1ccccc1	543	860	139	< 5		
CN(CCCCCCN1C(=O)c2ccccc2C1=O)Cc1ccccc1F	10500	1990	75	< 5		
CN(CCCCCN1C(=O)c2ccccc2C1=O)Cc1ccccc1F		525	67	< 5	< 50	
O=C1c2ccccc2C(=O)N1Cc1ccc(CNCc2ccccc2)cc1	2080			< 5		
CN(CCCCCCCCN1C(=O)c2ccccc2C1=O)Cc1cccc(Cl)c1	909	1040	1360	< 5		
